Assay results published in patent US20250367631A1, “TWO PHASE FLOWS FOR REACTIONS AND SEPARATIONS” (University of Delaware, priority 2024, published 2025).
Where two headings read alike, the source gives them in different places.

Columns and labels:
[1] = Organic solvent properties used in the CFD model (Table 2); assay type: physicochemical; settings: for Density / Dynamic viscosity: organic solvent; for Interfacial Tension: organic solvent / water
Excerpt: Principal component analysis (PCA) was used to identify the number of features required to capture the system's behavior. Considering material properties and dimensionless groups of both phases gave a total of 26 features (See Table 1 and definitions in the Supplemental Information (SI) herein below). The dimensionless groups were based on previous work. See, e.g., Chen, supra; Zhao, Y.; Chen, G.; Yuan, Q. “Liquid-liquid two-phase flow patterns in a rectangular microchannel.” AIChE Journal 2006, 52 (12), 4052-4060; Yagodnitsyna, A. A.; Kovalev, A. V.; Bilsky, A. V. “Flow patterns of immiscible liquid-liquid flow in a rectangular microchannel with T-junction.” Chemical Engineering Journal 2016, 303, 547-554; Zhao, C. X.; Middelberg, A. P. J. “Two-phase microfluidic flows.” Chemical Engineering Science 2011, 66 (7), 1394-1411. Apart from PCA, feature importance can rank features for classifying flowpatterns. A clustered covariance matrix may be employed to group dependent variables. We implemented these algorithms using the sklearn library in Python.
FIG. 11a, b, d and FIG. 11c maps the conditions for our experimental and computational flow patterns, respectively. As the diameter increases, different flow conditions (total volumetric flow rate, org/aq (v/v) ratio, various organic solvents) lead to varying patterns. […] For larger diameters, the parallel flow becomes prominent (FIG. 11c). […] At lower experimental flow rates (0.1-10 ml/min), no irregular flow is observed.

[2] = per Chen et al., cited from earlier work; for Diffusivity: HMF in the organic solvent; for Partition Coefficient: HMF, organic solvent/water
[3] = experimentally shown, Wang et al., cited from earlier work

SMILES	Density [1] [kg m^−3]	Dynamic viscosity [1]	Interfacial Tension [1] [N m^−1]	Diffusivity [2]	Partition Coefficient [2]	KHMF (HMF partition coefficient) ([3]; 25° C.)	KHMF (HMF partition coefficient) ([3]; 150° C.)
CCOC(C)=O [EtAc, ethyl acetate]	900	4.41 × 10^−4 Pa · s	0.0074	2.87 × 10^−9 m^2/s	1.4 ± 0.05	–	–
CC(=O)CC(C)C [MIBK, methyl isobutyl ketone]	684	5.85 × 10^−4 Pa · s	0.0157	2.43 × 10^−9 m^2/s	1.1 ± 0.03	–	–
Cc1cccc(O)c1 [m-cresol]	–	–	–	–	–	20.6	4.2
CCCC(C)O (centres unmarked) [2-pentanol]	812	3.47 × 10^−3 Pa · s	0.0034	3.81 × 10^−10 m^2/s	1.3 ± 0.07	–	–
